Assay results published in US6540996B1, “Compound screening methods” (priority 1999, dated 2003).

Experiments:
C. elegans [1] = assay: liquid assay: compound administered to the worm in liquid culture; assay type: in vivo
Excerpt: (§1) Using two kinds of assays, the optimal concentration of compounds that inhibit the activity SERCA has been determined. The first assay is designated the drop or plate assay in which the nematodes are fed E. coli strains pre-loaded with the compound. In a second assay, the compound is administrated to the worm in liquid culture.

C. elegans [2] = assay: plate (drop) assay: nematodes fed E. coli lawn pre-loaded with the compound; assay type: in vivo
Method: as §1
A standard plate drop assay is performed according to the following protocol. 4 ml NGM agar (see “The nematode C. elegans” Ed. by William B. Wood and the Community of C. elegans Researchers, CSHL Press, 1988, pg589) is into 3 cm plates and seeded with approximately 5 μl of an E. coli overnight culture and grown preferably for one week at room temperature. Approximately 10 μl of test compound dissolved in DMSO or other suitable solvent is pipetted onto the bacterial lawn so that the lawn is covered completely. After overnight soaking in or compound, one C. elegans (L4 stage) per plate is put onto the bacterial lawn. Plates are incubated at 21° C. and checked after some hours.

[3] = test system: C. elegans strain UG530 (harboring plasmid pGK28); assay: thapsigargin sensitivity of worms carrying the pGK28 (Phe259Val SERCA) transgene; assay type: in vivo; conditions: for stage reached by progeny on thapsigargin: 10 μl drops of 5 to 0.05 mM thapsigargin in DMSO, 5 days
Method: FIG. 3 illustrates the growth of C. elegans strain UG530 (strain harboring plasmid pGK28) on different concentrations of thapsigargin. The stage of the progeny was determined 5 days after adults were put on the plates. […] These were differentiated based on a GFP marker also present on this transgene.
The effect of thapsigargin on worms carrying a pGK28 transgene was measured in the following way: 10 μl of thapsigargin dissolved in DMSO (5, 2.5, 1, 0.5, 0.25, 0.1, and 0.05 mM respectively) was added onto a drop of E. coli strain OP50cs2 in 12-well plates. The wells with compounds were placed at 10 C. overnight, after which […] young adults were added to the wells. The pharynx pumping rate and movement behaviour was scored for the ten worms after 10 minutes and after one hour (short term effect). Furthermore the wells were scored for protruding vulva and rectum, production of progeny (few eggs in body) after one day (mid-term-effects), and for progeny after four days (long term effect)

[4] = test system: C. elegans wild-type worms and mutant strain unc-31; assay: effect on pharynx pumping behaviour; assay type: in vivo
Method: The effect of thapsigargin on pharynx pumping behaviour was also determined. In wild-type worms, all animals stopped pumping after 10 minutes.

[5] = test system: C. elegans strains unc-31 and srf-3; assay: production of progeny after thapsigargin treatment in different C. elegans strains; assay type: in vivo
Method: The effect of thapsigargin on the production of progeny was determined for a number of different C. elegans strains. The numbers of progeny produced following thapsigargin treatment was counted for an average of 15 animals, the results are summarised as follows: […]

SERCA Phe256Val = conditions: substitution Phe256Val in hamsters (Yu et al., 1999); cited from earlier work
[6] = mutant strain unc-31, 1 mM thapsigargin

Structure (SMILES): C/C=C(/C)C(=O)O[C@H]1C(C)=C2[C@H]([C@@H]1OC(=O)CCCCCCC)[C@@](C)(OC(C)=O)C[C@H](OC(=O)CCC)[C@@]1(O)[C@H]2OC(=O)[C@@]1(C)O [thapsigargin]
- size and movement of the worms (C. elegans [1]; 100, 50 and 20 μM): small worms which show slow and loopy movement
- vulva and progeny (C. elegans [1]; 100, 50 and 20 μM): protruding vulva, and no progeny (or no progeny that grows up)
- progeny and growth (C. elegans [1]; lower concentrations 10 μM and 5 μM): reduced number of progeny and delayed growth
- appearance and movement of the worms (C. elegans [2]; 5 μM, 2.5 μM and 1.25 μM): pale and thin and have a slow and irregular movement, with an increased amplitude
- brood size (C. elegans [2]; 5 μM, 2.5 μM and 1.25 μM): very small
- gonad, eggs and vulva (C. elegans [2]; 5 μM, 2.5 μM and 1.25 μM): defective gonad with only very few eggs, and a protruding vulva
- plate drop response, backing, pumping, constipation (C. elegans [2]; 5 μM, 2.5 μM and 1.25 μM): No plate drop response is observed, and the worms show poor backing, reduced pumping and strong constipation
- rectum (C. elegans [2]; 5 μM, 2.5 μM and 1.25 μM): Some worms also have a protruding rectum
- restart of pharynx pumping (C. elegans [2]; 5 μM, 2.5 μM and 1.25 μM): Within an hour the worms restart pumping, although at a low level
- time until the nematode stops pharynx pumping (C. elegans [2]; 5 μM, 2.5 μM and 1.25 μM): ≤ 10 min
- stage reached by progeny (C. elegans [2]; 5 μM, 2.5 μM and 1.25 μM, after four days): Progeny reaches L2 stage only after four days
- brood size (C. elegans [2]; lower concentrations 0.5 μM, 0.25 μM, 0.125 μM): reduced brood size
- stage reached by progeny on thapsigargin ([3]; GFP-animals harboring pGK28 (Phe259Val SERCA)): grew up to adult or L4
- amount of progeny on thapsigargin ([3]; nematodes harboring the Phe259Val SERCA mutant compared with wild-type): slightly more progeny than wild-type
- stage reached by progeny on thapsigargin ([3]; non-GFP animals (not harboring the mutated SERCA)): arrested at L1 and L2 and never grew up further than L3
- protruding vulva and rectum-phenotype ([3]; strain UG530 (harboring pGK28) treated with thapsigargin): not or were only occasionally observed
- protruding vulva and rectum-phenotype ([3]; wild-type nematodes treated with thapsigargin): very often observed
- pumping speed after restart [4, 6]: one third of normal speed
- restart of pumping [4, 6]: some start again after half an hour
- time after which all worms stopped pumping [4, 6]: 10 min
- time after which all animals stopped pumping ([4]; wild-type worms): 10 min
- number of progeny produced ([5]; strain srf-3, 1 mM thapsigargin, average of 15 animals (control 50)): 18,3
- number of progeny produced ([5]; strain unc-31, 0.5 mM thapsigargin, average of 15 animals (control 132)): 35
- number of progeny produced ([5]; strain unc-31, 1 mM thapsigargin, average of 15 animals (control 132)): 5,6
- resistance to thapsigargin inhibition (SERCA Phe256Val): 40 fold

Structure (SMILES): C/C=C(/C)C(=O)O[C@H]1C(C)=C2[C@H]([C@@H]1OC(=O)CCCCC)[C@@](C)(OC(C)=O)C[C@H](OC(=O)CCC)[C@@]1(O)[C@H]2OC(=O)[C@@]1(C)O [Thapsigargicin]
- phenotype of worms and progeny (C. elegans [1]; 1000 μM, 250 μM, 62.5 μM and 16 μM): small worms with slow and loopy movement, a protruding vulva, and no progeny (or no progeny that grows up)
- growth and progeny (C. elegans [1]; lower concentration 10 μM): delayed growth and reduced progeny
- brood size (C. elegans [2]; lower concentrations 3 μM and 1.5 μM): slightly reduced brood size

Structure (SMILES): O=C1C=CC(=O)C=C1 [1,4-benzoquinone]
- observable effect at the highest concentration tested (C. elegans [2]; 100 mM drop, 500 μM end concentration): did not result in a clear observable effect

Structure (SMILES): CC(C)(C)c1cc(O)c(C(C)(C)C)cc1O [2,5-di-tert butylhydroquinone]
- phenotype of worms and progeny (C. elegans [1]; 1 mM): progeny exhibiting delayed growth and the worms be observed to be thinner
- phenotype of the worms (C. elegans [2]; 500 μM): pale, starved, thin worms with slow movement, defective gonad, constipated and reduced brood size
